Here are results for 2 compounds from patent publication US20260365692A1, “COMPOSITIONS COMPRISING PROTEINS DISSOLVED IN FLUORINATED SOLVENTS, AND METHODS OF MAKING AND USING THE SAME” (priority 2022, published 2026).

The subject of series [1] is green fluorescent protein (GFP). As to the kind of experiment: Circular dichroism with PFNA, GFP. The note with it: increasing PFNA concentration. From the text: (§1) FIGS. 14A-14L depict circular dichroism spectra of Hb (FIG. 14A), GFP (FIG. 14B), BSA (FIG. 14C), β-Gal (FIG. 14D), rabbit serum IgG (FIG. 14E), transferrin (FIG. 14F), and urease (FIG. 14G) in the absence (black line) or presence (dashed lines) of PFNA. Increasing dash sequence indicated higher concentration of PFNA. FIG. 14H: Change in molar ellipticity at 216 nm (Δθ216) of PFNA-treated proteins, relative to native controls, as a function of increasing ligand concentration. FIG. 14I: Percentage change in secondary structural motifs of Hb, β-Gal and IgG between the native protein and 1 mM PFNA treated samples. β-sheet structures were further differentiated into parallel and antiparallel conformations. Hb, β-Gal and IgG were prioritized for analysis based on their significant spectral shift in the presence of 1 mM PFNA. FIGS. 14J-14L: Sensograms for BSA (FIG. 14J), β-gal (FIG. 14K), and IgG (FIG. 14L) showing relative response (R.U.) at 10, 25, 50, 75, and 100 μM.
(§2) To explore PFNA-mediated changes in protein structure, dose-response circular dichroism (CD) studies were performed (FIG. 14A-14G). […] Remarkably, these structural changes endured even at sub-stoichiometric PFNA:protein ratios (see 0.001 mM PFNA in […]; protein concentration was constant at 0.01 mM).
(CD spectra are sensitive to the conformation of chiral molecules.)

A further series relates to β-gal. As to the kind of experiment: Isothermal titration calorimetry, β-Gal. The series is classed as binding. The source says:
To test this assertion, PFNA binding to three exemplary proteins, BSA, β-Gal and IgG, was studied via isothermal titration calorimetry (ITC) and surface plasmon resonance (SPR) techniques. […] SPR analysis yielded similar results, with sensorgrams (FIGS. 14J-14L) that diverged from a simple 1:1 ligand-protein model. […] Similar phenomenon may explain the negative signals of the SPR data and further support the ability of PFNA to modulate the conformational plasticity of adsorbed proteins.

Series [2] relates to seven model proteins (Hb, GFP, BSA, β-Gal, IgG, TFN, URE). As to the kind of experiment: Fluorochemical-mediated dispersion of test proteins into perfluorohexane. To be noted: PFNA-mediated, protein hydrodynamic radius 3.5 nm. The series is classed as physicochemical. From the text:
Only the rabbit IgG Fc fragment is shown.
For PFAS amphiphiles, the combination of polar head group and fluorophilic tail additionally leads to their preferential assembly at water-fluorous interfaces. Based on these unique properties, it was speculated that PFAS compounds may noncovalently associate with proteins to mediate their phase separation into fluorous media. To test this, a screening assay was developed to qualitatively investigate the binding affinity of a library of perfluorinated chemicals with seven model proteins, which include human hemoglobin (Hb), green fluorescent protein (GFP), bovine serum albumin (BSA), (β-Galactosidase (β-Gal), rabbit serum immunoglobulin (IgG), bovine apo-transferrin (TFN), and urease (URE). This group of model proteins captures an array of physicochemical properties ranging in molecular weight, solvent accessible surface area (SASA), isoelectric point (pI), and hydrodynamic radii. A corresponding perfluorinated small molecule test set was selected to contain a plurality of functional groups, linear perfluorocarbon chain lengths, and cyclic or aromatic geometries (FIGS. 1-7). Selection of these compounds was based on their potential to form noncovalent bonds (i.e., hydrogen or ionic) with the solvent exposed protein surfaces. […] These three linear PFAS chemicals are currently regulated by the US Environmental Protection Agency based on their reproductive, immune, and hepatic toxicity (References: 44-46). In sum, the structural and biochemical diversity represented in the protein and fluorochemical libraries was rationally selected to allow structure-function-performance relationships to be ascertained from binding studies.

For the next series, the system named is urease. As to the kind of experiment: Circular dichroism with PFNA, urease.
Excerpt: as §1, §2

The next series relates to A549 cells. As to the kind of experiment: Annexin V/propidium iodide co-staining of A549 cells. It is filed as cell-based, human. The note with it: PFNA. As to the method:
FIGS. 20A-20D depicts annexin-V/PI co-staining of A549 cells treated without or with PFNA at 2 and 24 hours. FIGS. 20A-20C: Flow cytometry scatter plots. FIG. 20D: quadrant data comparing the population of unaffected cells (native), to cells displaying lipid translocation (Lip. Tran.) membrane permeabilization (Mem. Perm.), or both.
The ability of PFNA to modulate protein uptake may be explained by the reported anchorage of fluorinated amphiphiles within cell membranes to alter lipid bilayer fluidity and liquid-crystalline phase transitions. To test this assertion, and inform the interpretation of the protein uptake results, the annexin V (AV)/propidium iodide (PI) assay, commonly used to study apoptosis, was repurposed to explore membrane dynamics following PFNA exposure (FIGS. 20A-20D). Here, AV bound phosphatidylserine lipids exposed via inner-to-outer leaflet translocation, while PI positively labeled cells with permeabilized membranes. Comparing dye uptake at early (2 hour) and late (24 hour) PFNA exposure times allowed interpretation of lipid translocation (AV^+, PI^−), membrane permeabilization (AV^−, PI^+), both (AV^+, PI^+), or neither (AV^−, PI^−). […]

Series [3] can be described thus: Acute toxicity of β-Gal formulations in mice (Example 4). To be noted: 24 h. It is filed as in vivo, C57BL/6J mice. As to the method: FIG. 56 depicts serologic toxicology results from C57BL/6J mice 24 hours after administration of saline (control), β-GalSaline or β-GalExt. PFOc. Data shown as box and whisker plot±s.d. of n=5 technical replicates. Statistical significance determined using Student's t-test and represented as * p<0.05; all other comparisons were found not to be significant (p>0.05).
Finally, to assess the potential for acute toxicity of the fluorous dispersant, serologic chemistry analysis and histology was performed 24 hours after treating mice with β-Gal delivered from saline or PFOc extractions. […] Reduction of this marker can indicate a transient impairment of kidney and/or liver function.

Where [4] appears, read: β-Gal delivered from PFOc vs saline.

For `O=C(O)C(F)(F)C(F)(F)C(F)(F)C(F)(F)C(F)(F)C(F)(F)C(F)(F)C(F)(F)F` [Compound 7, perfluoronanonic acid], the “CD structural change, GFP (θ216 nm)” value in series [1] is on record as “slight enhancement of β-sheet structure”. Further, the “evolution of heat (ITC)” value with β-gal is “no significant evolution of heat”. Besides, the protein dispersion in series [2] was 60%. For the same compound, the “CD structural profile, urease” value in the series on urease is recorded as “remained largely unchanged”. Also, in the series on A549 cells (2 hours), the “lipid translocation (AV+, PI−)” value is “elevated”. In addition, the “lipid translocation and membrane permeability (AV+, PI+)” value with A549 cells (24 hours) is given as “increased”.

“β-Gal: β-Galactosidase (β-Gal), dissolved in PBS/saline or dispersed in PFOc”: the “histologic analysis of vital organs” value in series [3] (kidney, liver, lung, spleen) is listed as “did not identify pathologic signs of necrosis, cellular infiltration, inflammation, or hemorrhage”. For the same compound, in series [3] (setting [4]), the “albumin/globulin (ALB/GLOB) ratio” value was “statistically significant reduction”; the “other renal (CREA, BUN, TP) and hepatic (ALT, AST, ALKP) markers” value is “absence of statistically significant changes”.
